Tests used:
[1] = Pot life test of chain extenders in polyurethane-urea formulation; details: 50° C., log (relative viscosity) = I + A*(time) + B*(time)**2 + C*(time)**3
Procedure: A series of polyurethane-urea elastomers utilizing various chain extenders was prepared and evaluated in a pot life test system for the purpose of determining the reactivity of the chain extenders in standard urethane formulations relative to one another. The polyurethane-urea elastomers were formulated by reacting a prepolymer of poly(1,4-oxytetramethylene)glycol end-capped with 2,4-toluene diisocyanate, the prepolymer having an NCO content generally from 5-7%, with the test candidate chain extender aromatic diamine and a diol. The nominal stoichiometric equivalent ratio of isocyanate to diamine chain extender to diol for each sample is 2:1:1.
The test system for measuring pot life comprised a heated test chamber for holding 7 grams of test sample at a constant temperature (50° C.) and was equipped with a vertical perforated piston. This piston moves up and down through the test sample in timed relationship. (The temperature rise due to the exothermic reaction is discounted.) The force necessary to move the piston through the polymer sample is measured in arbitrary units, and the relationship of the force is plotted as a function of time. The force-pot life relationship of the urethane system during cure then is correlated to known force-viscosity relationships for the urethane-urea systems.
The coefficients apply to the equation:
log (viscosity)=I+A(time)+B(time)^2 +C(time)^3.
The coefficient of the first power term ("A") is a "quasi" reaction rate constant measuring initial reactivity. Smaller values in the quasi rate constant (A) indicate longer and desirable pot lives. The value T-5000 is the time in which the reaction product has a relative viscosity of 5000 units. Even though the value is an arbitrary value, that value is relevant for use in determining the performance of the test candidate in a RIM process or cast elastomers process. For injection molding of modest size parts, T-5000 may be about 2.5 minutes; whereas, the molding of large or intricate parts may require a T-5000 of greater than 5 minutes, e.g., 10 to 40 minutes for hand casting.

Salmonella strain TA1537 [2] = experiment: Ames mutagenic assay, strain (TA1537), without (-) and with (+) metabolic activation; format: cell-based; details: first strain column, TA1537 as printed
Procedure: (§1) A series of chain extenders was tested in the Ames mutagenic assay using five strains of Salmonella bacteria without (-) and with (+) metabolic activation. Table 6 provides the results of various test compounds including a variety of known aromatic diamine chain extenders against these five strains of Salmonella bacteria. The data are presented as the quantity of test compound in micrograms per test plate that gave positive mutagencity results.
(§2) From Pharmakon Research International, the Ames test data evaluation criteria in Table 5 are clearly defined: "In most tests with the Salmonella/Microsome Assay, results are either clearly positive or clearly negative. A positive result is defined as a reproducible, dose-related increase in the number of histidine-independent colonies. This dose-response relationship occasionally necessitates slight modification of the original doses in a repeat assay. If the historical control is within one standard deviation of the historical mean and the test chemical produces the highest increase equal to or greater than three times the solvent control value, the test chemical is considered positive. A negative result is defined as the absence of a reproducible increase in the number of histidine-independent colonies."

Salmonella strain TA1537 [3] = experiment: Ames mutagenic assay, second strain column (printed TA1537), without (-) and with (+) metabolic activation; format: cell-based; details: TA1537 as printed, (+) with metabolic activation
Procedure: as §1, §2

Salmonella strain TA1538 = experiment: Ames mutagenic assay, strain TA1538; format: cell-based
Procedure: as §1, §2

Salmonella strain TA98 = experiment: Ames mutagenic assay, strain TA98; format: cell-based; details: TA98, (+) with metabolic activation
Procedure: as §1, §2

Salmonella strain TA100 = experiment: Ames mutagenic assay, strain TA100; format: cell-based
Procedure: as §1, §2

[4] = system: five strains of Salmonella bacteria; experiment: Ames test, overall outcome; format: cell-based; details: with and without metabolic activation
Procedure: as §1, §2

With Cc1c(N)ccc(C(C)C)c1N [3iP26TDA, 3-isoPropyl-2,6-toluendiamine] the “lineshape coefficient A (quasi reaction rate constant, initial reactivity)” value [1] was “.5074”.

In the case of CCC(C)(C)c1ccc(N)c(C)c1N [3tA26TDA, 3-tertiaryAmyl-2,6-toluenediamine], the “lineshape coefficient A (quasi reaction rate constant, initial reactivity)” value [1] is reported as “.08902”.

With Cc1cc(C(C)C)c(N)c(C(C)C)c1N [35DiP24TDA, 3.5-Diisopropyl-2,4-toluenediamine] the “lineshape coefficient A (quasi reaction rate constant, initial reactivity)” value [1] was “.7499”.

With “3-Cyclopentenyl-2,6-toluenediamine [3Cp26TDA]” the “lineshape coefficient A (quasi reaction rate constant, initial reactivity)” value [1] was “.7173”.

For chlorotoluenediamine [Cl-TDA], the “quantity of test compound that gave positive mutagenicity results” value (from here on “quantity”) (Salmonella strain TA1537 [2]; (+) with metabolic activation) was 50 micrograms per test plate, the “quantity” value (Salmonella strain TA1537 [2]; (-) without metabolic activation) was 500 micrograms per test plate and the “quantity” value (Salmonella strain TA1537 [3]) was 5000 micrograms per test plate. The “quantity” value (Salmonella strain TA1538) was 500 micrograms per test plate, the “quantity” value (Salmonella strain TA98) was 500 micrograms per test plate and the “quantity” value (Salmonella strain TA100) was 500 micrograms per test plate. The Ames test result [4] was “Ames positive”.

For Cc1cc(N)c(N)c(C(C)(C)C)c1 [3tB34TDA, 5-tertiaryButyl-3,4-toluenediamine], the “lineshape coefficient A (quasi reaction rate constant, initial reactivity)” value [1] was “.2764”.

With Cc1c(N)cc(C(C)(C)C)cc1N [4tB26TDA, 4-tertiaryButyl-2,6-toluenediamine] the “lineshape coefficient A (quasi reaction rate constant, initial reactivity)” value [1] was 3.867 and the “lineshape coefficient A (quasi reaction rate constant, initial reactivity)” value ([1]; listed as 4-tertiarybutyl-2,6-toluenediamine) was 3.87.

With Cc1c(N)ccc(C(C)(C)C)c1N [3tB26TDA, 3-tert-butyl-2,6-toluenediamine] the “lineshape coefficient A (quasi reaction rate constant, initial reactivity)” value [1] was “.06721” and the “lineshape coefficient A (quasi reaction rate constant, initial reactivity)” value ([1]; listed as Monotertiarybutylated 2,6-TDA) was 0.06721.

For Cc1cc(C(C)C)c(N)cc1N [5iP24TDA, 5-isoPropyl-2,4-toluenediamine], the “lineshape coefficient A (quasi reaction rate constant, initial reactivity)” value [1] was 3.374.

In the case of Cc1cc(C(C)(C)C)c(N)c(C)c1N [5tB24DAmX, 5-tertiaryButyl-2,4-diaminometaxylene], the “lineshape coefficient A (quasi reaction rate constant, initial reactivity)” value [1] is reported as “.8716”.

With Cc1c(N)c(C(C)C)cc(C(C)C)c1N [35DiP26TDA, 3,5-Diisopropyl-2,6-toluenediamine] the “lineshape coefficient A (quasi reaction rate constant, initial reactivity)” value [1] was 1.563.

In the case of Cc1c(N)ccc(C2(C)CCCC2)c1N [3tMCp26TDA, 3-tertiaryMethylcyclopentyl-2,6-toluenediamine], the “lineshape coefficient A (quasi reaction rate constant, initial reactivity)” value [1] is reported as “.1722”.

With CC(C)(C)c1ccc(N)cc1N [tBBDA, tertiaryButyl-2,4-benzenediamine] the “quantity” value (Salmonella strain TA1538) was 1200 micrograms per test plate and the “quantity” value (Salmonella strain TA98) was 1800 micrograms per test plate.

In the case of CCc1cc(C)c(N)c(CC)c1N [35DE24TDA, 3,5-Diethyl-2,4-toluenediamine], the “lineshape coefficient A (quasi reaction rate constant, initial reactivity)” value [1] is reported as 1.350.

For Cc1c(N)c(C(C)(C)C)cc(C(C)(C)C)c1N [35DtB26TDA, 3,5-Ditertiarybutyl-2,6-toluenediamine], the “quantity” value (Salmonella strain TA1538) was 50 micrograms per test plate, the “quantity” value (Salmonella strain TA98) was 15 micrograms per test plate and the “quantity” value (Salmonella strain TA100) was 50 micrograms per test plate. The Ames test result [4] was “Ames positive” and the “lineshape coefficient A (quasi reaction rate constant, initial reactivity)” value [1] was “.1601”.

In the case of CCc1cc(CC)c(N)c(C)c1N [35DE26TDA, 3,5-Diethyl-2,6-toluenediamine], the “lineshape coefficient A (quasi reaction rate constant, initial reactivity)” value [1] is reported as 5.572.

From patent US4745223A, “Mono-tertiary-alkylated toluenediamine and derivatives” (Air Products and Chemicals, Inc., priority 1985, dated 1988)
